Measurements from US10768184B2, “Methods for increasing palatability of pet foodstuff” (MARS, INCORPORATED, priority 2013, dated 2020).

Legend:
[1] = tested on: cats; assay: Cat gel panel feeding test, monadic exposure (palatability, gel intake); assay type: in vivo
Method: A cat gel panel was used to compare the palatability of a range of concentrations of oleic acid in a monadic exposure. The dose response tested 8 concentrations of oleic acid ranging from 0.001% oleic acid to 1% oleic acid. All products (including the blank, 0% oleic acid) contained 25 mM L-histidine as an ingestive/positive tastant to increase the baseline gel intake, enabling the identification of a potential negative impact of the oleic acid concentration. A cat gel panel was used to compare the palatability of a range of concentrations of linoleic acid in a monadic exposure. The dose response tested 8 concentrations of linoleic acid ranging from 0.001% linoleic acid to 1% linoleic acid. All products (including the blank, 0% linoleic acid) contained 25 mM L-histidine as an ingestive/positive tastant to increase the baseline gel intake, enabling the identification of a potential negative impact of the linoleic acid concentration. A cat gel panel was used to compare the palatability of a range of concentrations of lauric acid in a monadic exposure. The dose response tested 5 concentrations of lauric acid ranging from 0.05% lauric acid to 1% lauric acid. All products (including the blank, 0% lauric acid) contained 25 mM L-histidine as an ingestive/positive tastant to increase the baseline gel intake, enabling the identification of a potential negative impact of the lauric acid concentration. A cat gel panel was used to compare the palatability of a range of concentrations of palmitic acid in a monadic exposure. The dose response tested 5 concentrations of palmitic acid ranging from 0.05% palmitic acid to 1% palmitic acid. All products (including the blank, 0% palmitic acid) contained 25 mM L-histidine as an ingestive/positive tastant to increase the baseline gel intake, enabling the identification of a potential negative impact of the palmitic acid concentration.

[2] = tested on: dogs; assay: Dog panel feeding test, monadic exposure (palatability, gel intake), two single-breed panels; assay type: in vivo; settings: 100 mM L-histidine
Method: Two different dog panels were used to compare the palatability of concentrations of linoleic acid. Each panel was made up of a single breed of dog; each panel being a different breed. The canine panels were used to compare the palatability of a range of concentrations of linoleic acid in a monadic exposure. The dose response tested 3 concentrations of linoleic acid ranging from 0.01% linoleic acid to 1% linoleic acid. All products (including the blank, 0% linoleic acid) contained 100 mM L-histidine as an ingestive/positive tastant to increase the baseline gel intake, enabling the identification of a potential negative impact of the linoleic acid concentration. Two different dog panels were used to compare the palatability of concentrations of oleic acid. Each panel was made up of a single breed of dog; each panel being a different breed. The canine panels were used to compare the palatability of a range of concentrations of oleic acid in a monadic exposure. The dose response tested 3 concentrations of oleic acid ranging from 0.01% oleic acid to 1% oleic acid. All products (including the blank, 0% oleic acid) contained 100 mM L-histidine as an ingestive/positive tastant to increase the baseline gel intake, enabling the identification of a potential negative impact of the oleic acid concentration.

[3] = tested on: cat GPR120; assay: Calcium-sensitive fluorescent dye (Fluo8) FLIPR assay, transiently transfected cells; assay type: cell-based; settings: in vitro assays with the feline receptors
Method: These constructs were then transiently transfected into the CHO K1 immortalised cell line, and other commonly used cell lines using Lipofectamine 2000 and testing was performed to establish the successful expression of the target protein. The testing was carried out using a calcium sensitive fluorescent dye (Fluo8). Transfected cells were seeded into 384 well assay plates. By loading the cells with the dye and then challenging the cells with an agonist for the receptor the response of the cells could be recorded on the FLIPR^TETRA instrument by measuring the increase in fluorescence associated with intra-cellular calcium release, thus confirming the functional expression of the receptor. Suitable experimental controls eliminate any possibility that the response of the cells is non-specific or that the fluorescence increase is due to factors other than the release of intracellular calcium by the cells.

[4] = 0.1% fatty acid in gel with 25 mM L-histidine
[5] = 0.6% fatty acid in gel with 25 mM L-histidine
[6] = dog panel Breed 1, 1% fatty acid (highest tested)

SMILES | intake compared to the blank [1, 4] | intake compared to the blank [1, 5] | intake compared to the blank ([1]; 1% fatty acid in gel with 25 mM L-histidine) | intake compared to the blank ([1]; higher concentrations (above 0.1%, up to 1%), 25 mM L-histidine) | response compared to the blank [2, 6] | response compared to the blank ([2]; dog panel Breed 2, 3 concentrations tested, 0.01% to 1%) | activation of feline receptors in vitro [3] | intake compared to the blank ([1]; 0.2% (w/v) fatty acid in gel with 25 mM L-histidine) | intake compared to the blank ([1]; 0.3% (w/v) fatty acid in gel with 25 mM L-histidine) | response compared to the blank ([2]; dog panel Breed 2, 0.1% fatty acid) | intake compared to the blank ([1]; any of the 5 concentrations tested, 0.05% to 1%, 25 mM L-histidine)
CCCCCCCCCCCC(=O)O [lauric acid] | highest intake overall | significantly aversive/negative | significantly aversive/negative |  |  |  |  |  |  |  | 
CCCCC/C=C\C/C=C\CCCCCCCC(=O)O [linoleic acid] | significantly higher intake |  |  | trend for the higher concentrations to become aversive/negative | significant positive/ingestive response | smaller differences between the linoleic acid concentrations tested | positive activation |  |  |  | 
CCCCCCCC/C=C\CCCCCCCC(=O)O [oleic acid] | significantly higher intake | significantly higher intake |  |  | significant positive/ingestive response |  | positive activation | significantly higher intake | significantly higher intake | significant positive/ingestive response | 
CCCCCCCCCCCCCCCC(=O)O [palmitic acid] |  |  |  |  |  |  |  |  |  |  | no significant difference
